This is an account of results in patent US12522562B2, “Intestine-specific partial agonists of farnesoid X receptor and uses thereof” (EWHA DrugDesignHouse Co., Ltd., priority 2022, dated 2026).

Read-outs that look alike come from different tables or passages of the source. Marks after values point to notes of the source that are not given here.

Usually EC50 stands for the midpoint of the concentration-response curve. For orientation: Vss means the apparent volume that relates the amount in the body to the concentration in plasma or blood.

In one data set the target is T1, PPARδ (Homo sapiens, UniProt Q03181).
T1 sequence (Q03181 1-441): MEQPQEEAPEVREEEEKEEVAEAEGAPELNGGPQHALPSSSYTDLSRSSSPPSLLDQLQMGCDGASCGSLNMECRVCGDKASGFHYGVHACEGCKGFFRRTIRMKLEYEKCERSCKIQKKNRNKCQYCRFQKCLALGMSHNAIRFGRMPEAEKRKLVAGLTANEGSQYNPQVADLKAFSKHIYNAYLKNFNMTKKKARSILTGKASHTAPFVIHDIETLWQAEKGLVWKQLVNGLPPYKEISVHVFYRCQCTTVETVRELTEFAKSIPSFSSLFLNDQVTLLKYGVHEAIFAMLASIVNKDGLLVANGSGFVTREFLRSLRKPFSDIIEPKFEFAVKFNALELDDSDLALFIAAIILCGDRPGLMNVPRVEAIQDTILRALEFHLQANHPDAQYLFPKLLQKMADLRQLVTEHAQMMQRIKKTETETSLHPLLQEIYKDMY
In words: Nuclear receptor selectivity panel (PathHunter NHR protein interaction assay). Conditions: read-out: ref. compd (EC50); reference compound for PPARδ.

A further data set concerns patients with NASH. As to conditions: cited from earlier work.
In data set [1] the target is T2, FXR (Homo sapiens, UniProt Q96RI1).
T2 sequence (Q96RI1 1-486): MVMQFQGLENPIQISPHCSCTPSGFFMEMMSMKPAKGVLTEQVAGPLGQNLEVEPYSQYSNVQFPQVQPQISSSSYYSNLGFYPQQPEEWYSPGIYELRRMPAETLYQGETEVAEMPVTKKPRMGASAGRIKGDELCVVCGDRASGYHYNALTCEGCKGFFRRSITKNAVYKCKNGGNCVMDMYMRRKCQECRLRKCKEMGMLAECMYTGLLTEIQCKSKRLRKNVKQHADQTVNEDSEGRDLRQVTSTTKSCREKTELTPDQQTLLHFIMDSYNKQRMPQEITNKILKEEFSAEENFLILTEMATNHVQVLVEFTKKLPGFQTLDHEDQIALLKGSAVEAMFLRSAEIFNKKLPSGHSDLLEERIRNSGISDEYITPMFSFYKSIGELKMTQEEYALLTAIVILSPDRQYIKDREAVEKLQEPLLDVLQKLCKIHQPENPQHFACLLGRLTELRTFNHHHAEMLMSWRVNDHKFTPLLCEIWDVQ
As to conditions: Chianelli et al., J. Med. Chem. 2020; cited from earlier work.

For data set [2], the target named is T2, FXR. In words: PathHunter NHR protein interaction assay, agonist mode (FXR).
Method: PathHunter® CHO-K1 FXR protein interaction cells were expanded from freezer stocks according to standard procedures. Cells were seeded in a total volume of 20 μL into white walled, 384-well microplates and incubated at 37° C. for the appropriate time prior to testing. Assay media contained charcoal-dextran filtered serum to reduce the level of hormones present. For agonist determination, cells were incubated with sample to induce response. […] For antagonist determination, cells were pre-incubated with antagonist followed by agonist challenge at the EC80 concentration. […] Microplates were read following signal generation with a PerkinElmer Envision™ instrument for chemiluminescent signal detection. Compound activity was analyzed using CBIS data analysis suite (ChemInnovation, CA). For agonist mode assays, percentage activity was calculated using the following formula: % Activity=100%×(mean RLU of test sample−mean RLU of vehicle control)/(mean MAX control ligand−mean RLU of vehicle control).
In this assay, two weakly complementing fragments of the β-galactosidase are expressed within stably transfected cells. The complementing fragments of the β-galactosidase are translationally fused to the C-terminus of a full-length FXR and to the steroid receptor coactivator peptide (SRCP), respectively. When bound by ligand, the FXR will migrate to the nucleus and recruit the SRCP domain, whereby complementation occurs, generating a unit of active β-galactosidase and production of chemiluminescent signal. Thus, measurement of chemiluminescent signal directly reflects FXR-coactivator interaction.
The conditions of data set [3]: Fang et al., Nat. Med. 2015; cited from earlier work.
Data set [4] addresses T2, FXR. In words: PathHunter NHR protein interaction assay, antagonist mode (GW4064 challenge at EC80). It is filed as cell-based. As to conditions: pre-incubation, then GW4064 at EC80.
The nature of data set [5]: Pharmacokinetic studies of Example 11 in rats. In kind it is in vivo, Sprague-Dawley rats. The protocol:
To investigate whether Example 11 is indeed an intestine-selective/specific FXR agonist, its pharmacokinetic profile was evaluated. Male Sprague-Dawley rats (7-week old, 240-260 g) were purchased from Orient Bio. Inc. (Seongnam, Korea). Rats were kept in the cage maintained under a controlled environment (temperature of 23±3° C., relative humidity of 50±5%, and 12 h dark-light cycle) for at least 3 days. Rats were fasted overnight before dose administration. The Example 11 was dissolved in a mixture of DMSO, Tween 80, and 0.9% saline solution (v:v:v, 1:1:8) at a concentration of 2.5 mg/mL for intravenous injection (IV). Also, Example 11 was dissolved in corn oil for oral administration (PO). Rats were divided into two groups; IV group and PO group including at least 6 animals per group. After anesthetized with isoflurane, rats were given the dose of 5 mg/kg via IV injection or 80 mg/kg via PO administration by oral gavage into the stomach. Blood samples (approximately 0.25 mL) were obtained by subclavian vein puncture at 0, 0.033, 0.083, 0.167, 0.333, 0.667, 1, 2, 3, 5, 7, 10, and 24 h after IV injection. After PO administration, blood samples were obtained at 0, 0.083, 0.167, 0.333, 0.667, 1, 2, 3, 5, 7, 10, and 24 h post-dose. Subsequently, blood samples were collected in 1.5-mL Eppendorf tube on an ice. The tubes were centrifuged at 13500 rpm for 15 min at 4° C. to separate the plasma fraction. Then, the plasma samples were stored at […] until HPLC analysis. To prepare the samples for HPLC analysis, 5 μL of Example 11 or Example 24 and 5 μL of internal standard, Example 4 were added to 45 μL of plasma. For extraction, 45 μL of MeCN was added to the mixture. Then, the mixture was vortexed for 2 min and centrifuged at 13500 rpm for 15 min at room temperature. The 60 μL of clear supernatant was transferred to an insert. Then, the HPLC auto-injector was programmed to inject 40 μL of the sample to the HPLC system for analysis. The linearity of the calibration curve was obtained by plotting the peak area ratio (area of Example 11 or area of Example 24/area of Example 4). Pharmacokinetic parameters were calculated by non-compartmental analysis of the plasma concentration-time profiles using Winnonlin® Professional version 8.01 software (Pharsight Corporation, Mountain View, CA). Oral bioavailability (F) was calculated by the ratio of the dose-corrected area under the plasma drug concentration-time curve (AUClast) between oral administration and intravenous injection.

The target in another data set is T3, LXRβ (Homo sapiens, UniProt P55055).
T3 sequence (P55055 1-460): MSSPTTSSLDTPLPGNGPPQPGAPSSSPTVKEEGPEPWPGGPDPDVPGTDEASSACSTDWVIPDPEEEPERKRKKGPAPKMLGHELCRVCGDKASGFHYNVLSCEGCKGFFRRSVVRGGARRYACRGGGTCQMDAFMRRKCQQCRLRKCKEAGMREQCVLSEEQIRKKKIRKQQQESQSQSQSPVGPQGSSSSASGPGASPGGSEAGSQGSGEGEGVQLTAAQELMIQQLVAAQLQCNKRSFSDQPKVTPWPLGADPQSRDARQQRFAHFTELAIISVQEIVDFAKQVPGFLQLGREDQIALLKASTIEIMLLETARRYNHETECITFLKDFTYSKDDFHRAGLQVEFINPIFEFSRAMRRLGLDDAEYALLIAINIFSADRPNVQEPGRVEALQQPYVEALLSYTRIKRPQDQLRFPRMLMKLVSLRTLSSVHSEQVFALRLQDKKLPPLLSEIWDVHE
In words: Nuclear receptor selectivity panel (PathHunter NHR protein interaction assay). Conditions: read-out: % max. rel. efficacy at 100 uM, 100 μM; relative to TO901317.

The target in the next data set is T4, PPARγ (Homo sapiens, UniProt P37231).
T4 sequence (P37231 1-505): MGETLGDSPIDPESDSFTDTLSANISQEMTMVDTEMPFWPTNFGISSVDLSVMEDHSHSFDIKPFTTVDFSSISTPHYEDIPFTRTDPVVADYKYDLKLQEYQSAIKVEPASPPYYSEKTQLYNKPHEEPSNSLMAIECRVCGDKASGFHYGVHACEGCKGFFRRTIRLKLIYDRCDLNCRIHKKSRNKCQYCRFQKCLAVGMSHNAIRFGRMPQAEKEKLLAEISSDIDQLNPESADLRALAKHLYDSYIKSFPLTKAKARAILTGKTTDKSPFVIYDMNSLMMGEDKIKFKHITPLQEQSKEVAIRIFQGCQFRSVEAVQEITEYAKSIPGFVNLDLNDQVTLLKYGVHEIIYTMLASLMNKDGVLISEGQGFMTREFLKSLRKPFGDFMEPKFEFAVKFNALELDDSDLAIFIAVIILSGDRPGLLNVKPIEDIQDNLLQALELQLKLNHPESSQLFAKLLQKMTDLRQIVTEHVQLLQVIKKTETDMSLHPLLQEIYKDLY
The data set is described as above. As to conditions: read-out: % max. rel. efficacy at 100 uM, 100 μM; relative to troglitazone.

For the next data set, the target named is T5, Erα (Homo sapiens, UniProt P03372).
T5 sequence (P03372 1-595): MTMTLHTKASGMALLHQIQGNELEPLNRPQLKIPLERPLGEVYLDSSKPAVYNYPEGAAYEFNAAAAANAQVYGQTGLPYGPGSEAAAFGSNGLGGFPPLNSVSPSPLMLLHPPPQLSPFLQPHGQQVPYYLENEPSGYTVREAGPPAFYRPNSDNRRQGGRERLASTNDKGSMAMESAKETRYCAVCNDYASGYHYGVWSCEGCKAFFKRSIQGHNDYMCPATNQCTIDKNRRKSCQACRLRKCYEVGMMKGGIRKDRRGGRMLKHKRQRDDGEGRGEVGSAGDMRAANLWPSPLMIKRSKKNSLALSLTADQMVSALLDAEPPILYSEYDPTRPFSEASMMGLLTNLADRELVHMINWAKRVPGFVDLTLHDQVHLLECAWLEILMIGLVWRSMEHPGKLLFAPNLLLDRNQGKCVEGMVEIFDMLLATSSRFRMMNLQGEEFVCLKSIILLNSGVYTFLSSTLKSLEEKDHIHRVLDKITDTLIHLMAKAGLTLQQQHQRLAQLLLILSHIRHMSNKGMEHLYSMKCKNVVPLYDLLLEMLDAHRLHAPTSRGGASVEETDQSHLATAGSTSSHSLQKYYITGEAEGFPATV
The description is as above. As to conditions: relative to 17β-estradiol.

For data set [6], the system named is patients with non-cirrhotic NASH. Conditions: 100 mg, Phase II; cited from earlier work.
Setting [7] is: Table 2, 5 concentrations, 3-fold dilution from 3.3 μM (GW4064: 10 conc. from 10 μM), one experiment in duplicate, NA = inactive at 3.3 μM.
Where [8] appears, read: Table 5, relative to GW4064, mean ± SEM of two or three independent experiments in duplicate.
Where [9] appears, read: read-out: % max. rel. efficacy, Table 2, relative to GW4064, top conc. 3.3 μM, one experiment in duplicate.
The mark [10] stands for this setting: read-out: % max. rel. efficacy, Table 4, relative to GW4064, top conc. 3.3 μM, one experiment in duplicate.
Where [11] appears, read: read-out: % max. rel. efficacy, Table 5, relative to GW4064, mean ± SEM of two or three independent experiments in duplicate.
[12] abbreviates: rat plasma, intravenous dose of Example 11, 5 mg/kg, Example 24 measured as metabolite.
[13] abbreviates: rat, intravenous dose of Example 11, 5 mg/kg, Example 24 measured as metabolite.

With `CCCc1c(OCCCOc2ccc(OCC(=O)O)cc2)ccc(C(C)=O)c1O` [L-165,041], the concentration for a half-maximal effect (EC50) at PPARδ came out at 6 nM.

As to `Cn1nc(C(=O)N(Cc2ccccc2)Cc2ccc(C(=O)O)cc2)c2c1-c1cc(Cl)ccc1OC2` [nidufexor], in the data set with patients with NASH (Phase II, NASH), the “reduction of LFC (liver fat content)” value is on record as “about 30%”. Besides, the rate of pruritus is recorded as 54% with patients with NASH (high-dose group) and 30% in the data set on patients with NASH (low-dose group). In addition, the “maximum efficacy relative to GW4064” value at FXR [1] is recorded as 57%.

For the compound `COC(=O)/C=C/c1cccc(N(Cc2ccc(-c3ccc(N(C)C)cc3)cc2)C(=O)C2CCCCC2)c1` [Fexaramine, reference compound], the 50% effective concentration (EC50) at FXR [2] is 1000 nM; on FXR [2] (setting [7]), 800 nM. Besides, the “% max. rel. efficacy” value on FXR [2] (setting [8]) was 29 ± 4^b %. Also, the Emax was 21% at FXR [2] (setting [9]), 34% on FXR [2] (setting [10]) and 29 ± 4% on FXR [2] (setting [11]). Also, the oral bioavailability in data set [3] is on record as 12%.

In the case of `CN(C)c1ccc(-c2ccc(CN(C(=O)C3CCCCC3)c3cc(F)cc(/C=C/C(=O)O)c3)cc2C#N)cc1` [Example 24], the “% agonistic efficacy” value at FXR [2] (Table 7, 10 μM) is reported as 0%. The “% antagonistic efficacy” value at FXR [4] (3.3 μM) was 7%. For the same compound, at FXR [4] (10 μM), the “% antagonistic efficacy” value worked out at 26%. In [5] (setting [12]), the AUClast was 1200 ± 100 ng·h/mL and the t1/2 worked out at 14.4 ± 3 min. In data set [5] (rat, intravenous Example 11, 5 mg/kg, metabolite), the “detected in plasma until (time after administration)” value came to 1 h. For the same compound, in data set [5] (setting [13]), the CL was found to be 70 ± 6.7 mL/min/kg and the distribution volume (Vss) is 1.4 ± 0.2 L/kg. The “detected after (time after oral administration)” value in data set [5] (rat, oral Example 11, 80 mg/kg) was 3 h.

On to `COC(=O)/C=C/c1cccc(N(Cc2ccc(-c3ccc(N(C)C)cc3)c(C#N)c2)C(=O)C2CCCCC2)c1` [Example 4, (E)-3-(3-((2-cyano-4′-dimethylaminobiphenyl-4-ylmethyl)cyclohexanecarbonylamino)phenyl)acrylic Acid Methyl Ester], for which the Emax at 100 µM at LXRβ was < 3%; at FXR [2] (read-out: % max. rel. efficacy at 100 uM, Table 3, 100 μM, relative to GW4064), 47%; at PPARγ, < 3%. Moreover, the EC50 turned out to be 1000 nM on FXR [2]; 800 nM on FXR [2] (setting [7]); 800 ± 100 nM on FXR [2] (Table 5, mean ± SEM of two or three independent experiments in duplicate). Also, the “% max. rel. efficacy” value at FXR [2] (setting [8]) is given as 40 ± 8^b %. Also, the Emax was 24% on FXR [2] (setting [9]), 47% on FXR [2] (setting [10]) and 40 ± 8% on FXR [2] (setting [11]). Moreover, the “% max. rel. efficacy at 100 uM” value on Erα came to 1%.

Turning to `O=C(O)c1ccnc(N2CC(O)(c3ccc(OCc4c(-c5c(Cl)cccc5Cl)noc4C4CC4)cc3Cl)C2)c1` [cilofexor], in data set [6], the “median relative decrease in hepatic steatosis” value is −22.7% and the “moderate to severe pruritus (patients)” value is 14%.
